Columns and labels:
[1] = target: T1, Recombinant human DPP4 (Homo sapiens, UniProt P27487); assay: DPP4 protease activity assay; type: biochemical; conditions: 20 µM GP-AMC substrate; read-out: pIC50 (DPP4) (converted)
T1 construct: purchased R&D systems 9168-SE
Procedure: The PREP activity assay was performed using the FACS buffer (PBS including 1% FBS, Sigma-Aldrich, Cat# D8537). […] The DPP4 activity assay was performed in DPP assay buffer (25 mM Tris, pH 8.0).
Four parameter logistic (4PL) curve fitting and pIC50 calculations were performed using ActivityBase software.

[2] = target: T2, FAP-expressing human WI-38 fibroblasts (Homo sapiens, UniProt Q12884); assay: Competitive FACS binding assay (displacement of Cy5-labeled FAP inhibitor 3BP-2935); conditions: 3 nM Cy5-labeled 3BP-2935, 4°C, 1 hour
T2 construct: FAP-expressing human WI-38 fibroblasts (ECACC 90020107) were cultured in EMEM; host or cells: WI-38 human fibroblasts
T2 sequence (Q12884 1-760): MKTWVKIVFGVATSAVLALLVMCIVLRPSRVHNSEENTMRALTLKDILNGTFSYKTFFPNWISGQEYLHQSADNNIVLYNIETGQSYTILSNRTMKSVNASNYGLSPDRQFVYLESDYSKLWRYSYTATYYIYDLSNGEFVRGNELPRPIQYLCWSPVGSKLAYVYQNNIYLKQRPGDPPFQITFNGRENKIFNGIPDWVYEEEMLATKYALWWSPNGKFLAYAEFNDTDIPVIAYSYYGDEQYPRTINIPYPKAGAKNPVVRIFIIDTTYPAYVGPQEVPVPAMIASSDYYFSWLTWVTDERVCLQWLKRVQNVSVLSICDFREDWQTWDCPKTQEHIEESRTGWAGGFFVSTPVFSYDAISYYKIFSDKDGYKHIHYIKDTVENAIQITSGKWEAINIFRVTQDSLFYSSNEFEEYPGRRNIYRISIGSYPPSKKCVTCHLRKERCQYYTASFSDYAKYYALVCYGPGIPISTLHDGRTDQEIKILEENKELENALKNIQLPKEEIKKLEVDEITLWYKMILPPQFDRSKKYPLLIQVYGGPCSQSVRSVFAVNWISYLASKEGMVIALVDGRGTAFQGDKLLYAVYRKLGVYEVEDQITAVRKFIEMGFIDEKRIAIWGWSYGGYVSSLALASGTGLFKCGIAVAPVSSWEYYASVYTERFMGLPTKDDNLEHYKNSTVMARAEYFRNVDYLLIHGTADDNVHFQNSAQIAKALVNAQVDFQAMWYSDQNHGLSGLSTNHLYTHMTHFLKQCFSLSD
Procedure: In order to determine binding of compounds according to the present invention to FAP-expressing cells, a competitive FACS binding assay was established.
Cells were diluted in FACS buffer to a final concentration of 100.000 cells per ml and 200 µl of the cell suspension are transferred to a u-shaped non-binding 96-well plate (Greiner).
Cell were washed twice with FACS buffer (see above) and resuspended in 200 µl FACS buffer. Cells were analyzed in an Attune NxT flow cytometer (Thermo Fisher Scientific). Median fluorescence intensities (Cy5 channel) was calculated by Attune NxT software and plotted against test compound concentrations. Four parameter logistic (4PL) curve fitting and pIC50 calculations were performed using ActivityBase software.

[3] = target: T3, Human recombinant FAP (Homo sapiens, UniProt Q12884); assay: FRET-based FAP protease activity assay (human); type: biochemical; design: purchased R&D systems 3715-SE; conditions: FRET-peptide substrate, 37°C; for IC50: read-out: pIC50 (Activity) (converted)
T3 sequence (Q12884 1-760): T2 sequence (Q12884 1-760)
Procedure: (§1) In order to determine the inhibitory activity a FRET-based FAP protease activity assay was established.
25 µL of a 30 µM substrate solution, diluted in assay buffer, was added. […] Four parameter logistic (4PL) curve fitting and pIC50 calculations were performed using ActivityBase software (IDBS).

[4] = target: T3, Human recombinant FAP; assay: Surface plasmon resonance assay (Biacore T200, single cycle kinetics); type: binding; conditions: SPR, 25°C; for HL [min] (Biacore): half-life; for Kd / pKD (Biacore): 1:1 Langmuir binding model; for Kd: read-out: pKD (Biacore) (converted)
Procedure: Surface plasmon resonance studies were performed using a Biacore™ T200 SPR system (Cytiva, formerly GE Healthcare). Briefly, polarized light is directed towards a gold-labeled sensor surface, and minimum intensity reflected light is detected. The angle of reflected light changes as molecules bind and dissociate. […] Test compounds are contacted with the loaded surface, and a real-time interaction profile with the FAP ligand is recorded in a sensorgram. In real-time, the association and dissociation of a binding interaction is measured, enabling calculation of association and dissociation rate constants and the corresponding affinity constants. Importantly, a background response is generated due to the difference in the refractive indices of the running and sample buffers, as well as unspecific binding of the test compounds to the flow cell surface. This background is measured and subtracted by running the sample on a control flow cell coated with the same density of capture antibody in the absence of immobilized FAP. Furthermore, baseline drift correction of the binding data is performed, which is caused by slow dissociation of the captured FAP from the immobilized antibody. This drift is measured by injecting running buffer through a flow cell with the antibody and FAP immobilized to the sensor surface.
Biacore™ CM5 sensor chips were used. […] A 150 µL aliquot was transferred into plastic vials and placed into the sample rack of the Biacore™ T200 instrument. Amine Coupling Kit Reagent solutions were transferred into plastic vials and placed into the sample rack: 90 µL of 0.4 M 1-ethyl-3-(3-dimethylaminopropyl)carbodiimide (EDC), and 90 µL of 0.1 M N-hydroxysuccinimide (NHS). A 130 µL aliquot of 1 M ethanolamine-HCl, pH 8.5, was transferred into plastic vials and placed into the sample rack. The Biacore™ liquid system was set-up as follows: Separate bottles containing distilled water (1 L), Running Buffer (500 mL), as well as an empty bottle for waste were placed onto the buffer tray. A preinstalled program for immobilization was used, with an immobilization level of 7000 RU. Immobilization was performed at 25°C. The immobilization procedure of anti-FAP antibodies was performed, as described in the Table 5. Table 5: Immobilization protocol for anti-FAP antibodies used on the CM5 sensor chip.
Human recombinant FAP was diluted in Running Buffer to a final concentration of 20 µg/mL. A 100 µL aliquot of human FAP-Working-Solution was transferred into plastic vials and placed into a sample rack. A 0.5 mM Compound-Stock-Solution was prepared by dissolving each compound in DMSO. For each test compound, Compound-Stock-Solutions were diluted in Running Buffer (HBST) at 500 nM and further diluted with HBST-DMSO Buffer (0.1% DMSO). SPR binding analyses for binary complexes were performed in SCK mode at 25°C. Following three SCK measurements, a baseline drift was assessed by injecting running buffer through a flow cell, with the antibody and FAP immobilized to the sensor surface. Table 6: Protocol for assessing the binding kinetics.
For each test compound, SPR raw data in the form of resonance units (RU) were plotted as sensorgrams using the Biacore™ T200 control software. The signal from the blank sensorgram was subtracted from that of the test compound sensorgram (blank corrected). The blank corrected sensorgram was corrected for baseline drift by subtracting the sensorgram of a SCK run without the test compound (running buffer only). The association rate (kon), dissociation rate (koff), dissociation constant (KD), and t1/2 were calculated from Blank-normalized SPR data using the 1:1 Langmuir binding model from the Biacore™ T200 evaluation software. Raw data and fit results were imported as text files in IDBS. The pKD value (negative decadic logarithm of dissociation constant) was calculated in the IDBS excel template.

[5] = target: T4, Recombinant mouse FAP (Mus musculus, UniProt P97321); assay: FRET-based FAP protease activity assay (mouse); type: biochemical; conditions: FRET-peptide substrate, 37°C; for IC50: read-out: pIC50 (mouseFAP) (converted)
T4 construct: purchased R&D systems 8647-SE
T4 sequence (P97321 1-761): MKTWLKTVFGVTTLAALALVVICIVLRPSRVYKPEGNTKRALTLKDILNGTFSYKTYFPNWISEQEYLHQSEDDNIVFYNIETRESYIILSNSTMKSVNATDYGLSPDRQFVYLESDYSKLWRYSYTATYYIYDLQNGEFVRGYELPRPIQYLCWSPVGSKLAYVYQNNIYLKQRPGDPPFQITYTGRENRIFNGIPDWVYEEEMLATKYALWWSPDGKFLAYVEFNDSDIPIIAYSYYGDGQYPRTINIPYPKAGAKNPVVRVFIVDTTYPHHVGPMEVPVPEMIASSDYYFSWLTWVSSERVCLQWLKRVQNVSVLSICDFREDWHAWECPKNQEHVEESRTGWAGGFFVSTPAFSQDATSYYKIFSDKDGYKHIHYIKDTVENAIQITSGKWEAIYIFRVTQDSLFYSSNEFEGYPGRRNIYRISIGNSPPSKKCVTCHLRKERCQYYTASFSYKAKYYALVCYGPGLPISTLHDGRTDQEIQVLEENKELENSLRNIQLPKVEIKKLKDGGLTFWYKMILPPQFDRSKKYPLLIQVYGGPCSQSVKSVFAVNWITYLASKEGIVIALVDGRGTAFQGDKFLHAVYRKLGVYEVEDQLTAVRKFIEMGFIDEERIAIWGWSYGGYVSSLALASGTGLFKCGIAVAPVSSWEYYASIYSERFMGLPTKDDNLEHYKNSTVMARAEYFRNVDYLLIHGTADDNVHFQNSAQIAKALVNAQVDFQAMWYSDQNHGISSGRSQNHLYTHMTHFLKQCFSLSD
Procedure: as §1
25 µL of a 30 µM substrate solution, diluted in assay buffer, was added. […] Four parameter logistic (4PL) curve fitting and pIC50 calculations were performed using ActivityBase software.

T1 sequence (P27487 whole entry): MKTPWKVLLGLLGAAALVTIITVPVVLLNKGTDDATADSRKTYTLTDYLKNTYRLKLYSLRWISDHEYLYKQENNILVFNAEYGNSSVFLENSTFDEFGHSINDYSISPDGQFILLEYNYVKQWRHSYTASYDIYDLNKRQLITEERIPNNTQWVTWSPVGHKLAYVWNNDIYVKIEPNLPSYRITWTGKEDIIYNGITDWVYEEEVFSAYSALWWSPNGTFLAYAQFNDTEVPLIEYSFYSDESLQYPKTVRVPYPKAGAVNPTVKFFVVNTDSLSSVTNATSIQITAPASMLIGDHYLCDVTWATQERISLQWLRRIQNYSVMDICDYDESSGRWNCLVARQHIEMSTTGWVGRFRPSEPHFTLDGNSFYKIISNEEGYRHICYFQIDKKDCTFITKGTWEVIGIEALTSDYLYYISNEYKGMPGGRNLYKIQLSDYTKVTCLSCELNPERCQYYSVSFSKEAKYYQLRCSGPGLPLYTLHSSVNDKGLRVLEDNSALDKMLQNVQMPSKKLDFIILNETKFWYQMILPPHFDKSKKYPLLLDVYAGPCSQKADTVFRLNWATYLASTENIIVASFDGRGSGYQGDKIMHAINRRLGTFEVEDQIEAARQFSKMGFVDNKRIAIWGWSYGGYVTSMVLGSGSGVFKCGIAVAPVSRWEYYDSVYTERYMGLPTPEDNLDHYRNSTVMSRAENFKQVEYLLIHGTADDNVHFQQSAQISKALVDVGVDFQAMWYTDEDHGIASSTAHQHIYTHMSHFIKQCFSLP

SMILES	IC50 [2]	IC50 [3]	HL [min] (Biacore) [4]	other results
N#C[C@@H]1CCCN1C(=O)CNC(=O)c1ccnc2ccccc12	–	–	–	IC50 [1]: > 1000 nM
Cn1ncnc1C(=O)[C@@H]1CCCN1C(=O)CNC(=O)c1ccnc2ccccc12	> 1000 nM	316 nM	–	–
N#C[C@@H]1CC(F)(F)CN1C(=O)CNC(=O)c1ccnc2ccccc12	–	–	10.4 min	–
N#C[C@@H]1CCCN1C(=O)CNC(=O)c1ccnc2ccc(-c3ccc(C(=O)O)cc3)cc12	2.51 nM	1.58 nM	11 min	Kd [4]: 0.2 nM; IC50 [1]: > 1000 nM
O=C(NCC(=O)N1CCC[C@H]1C(=O)c1ncn[nH]1)c1ccnc2ccccc12	200 nM	63.1 nM	–	IC50 [5]: 79.4 nM
CC(C)(C)OC(=O)N1CC[N+]([O-])(CCCOc2ccc3nccc(C(=O)NCC(=O)N4CC(F)(F)C[C@H]4C#N)c3c2)CC1	2.51 nM	1 nM	–	–
CC(C)(C)OC(=O)N1CC[N+]([O-])(CCCOc2ccc3c(c2)c(C(=O)NCC(=O)N2CC(F)(F)C[C@H]2C#N)cc[n+]3[O-])CC1	10 nM	2.51 nM	–	–
CC(C)(C)OC(=O)N1CCN(CCCOc2ccc3c(c2)c(C(=O)NCC(=O)N2CC(F)(F)C[C@H]2C#N)cc[n+]3[O-])CC1	10 nM	2.51 nM	–	–
CC(C)(C)OC(=O)N1CCN(CCCOc2ccc3nccc(C(=O)NCC(=O)N4CC(F)(F)C[C@H]4C#N)c3c2)CC1	3.98 nM	1.58 nM	–	–
N#C[C@@H]1CCCN1C(=O)CNC(=O)c1ccnc2ccc(-n3cc(C(=O)NCCCNC(=O)CN4CCN(CC(=O)O)CCN(CC(=O)O)CCN(CC(=O)O)CC4)nn3)cc12	–	–	95 min	–
Cc1c(-c2ccc(S(C)(=O)=O)cc2)ccc2nccc(C(=O)NCC(=O)N3CC(F)(F)C[C@H]3C#N)c12	2 nM	0.501 nM	–	IC50 [5]: 2 nM
Cc1cc2nccc(C(=O)NCC(=O)N3CC(F)(F)C[C@H]3C#N)c2cc1-c1ccc(S(C)(=O)=O)cc1	1.26 nM	0.501 nM	–	IC50 [5]: 1.58 nM
N#C[C@@H]1CC(F)(F)CN1C(=O)CNC(=O)c1ccnc2ccc(-c3ccc(C(=O)NCCN4CCN(C(=O)CN5CCN(CC(=O)O)CCN(CC(=O)O)CCN(CC(=O)O)CC5)CC4)nc3)cc12	–	–	>500 min	pKD (Biacore) [4]: >11
O=C(NCC(=O)N1CCC[C@H]1B(O)O)c1ccnc2ccccc12	3.16 nM	1.26 nM	–	–
CS(=O)(=O)c1ccc(-c2ccc3nccc(C(=O)NCC(=O)N4CC(F)(F)C[C@H]4C#N)c3c2)c(CO)c1	2 nM	0.501 nM	>500 min	Kd [4]: < 0.01 nM
COc1cccc2c(C(=O)NCC(=O)N3CC(F)(F)C[C@H]3C#N)ccnc12	20 nM	6.31 nM	–	–
Cc1cccc2c(C(=O)NCC(=O)N3CC(F)(F)C[C@H]3C#N)ccnc12	25.1 nM	12.6 nM	–	–
CCOc1cccc2c(C(=O)NCC(=O)N3CC(F)(F)C[C@H]3C#N)ccnc12	20 nM	3.16 nM	–	–
N#C[C@@H]1CC(F)(F)CN1C(=O)CNC(=O)c1ccnc2c(OCC3CC3)cccc12	15.8 nM	3.16 nM	–	–
O=C(NCC(=O)N1CCC[C@H]1C(=O)CO)c1ccnc2ccccc12	–	–	3.1 min	pIC50 (mouseFAP) [5]: 8.2
N#C[C@@H]1CC(F)(F)CN1C(=O)CNC(=O)c1ccnc2c(OCCCCc3ccccc3)cccc12	–	–	–	pIC50 (FACS) [2]: 7.7; pIC50 (Activity) [3]: 8.2
O=C(O)CN1CCN(CC(=O)O)CCN(CC(=O)NCCCS(=O)(=O)c2ccc(-c3ccc4nccc(C(=O)NCC(=O)N5CCC[C@H]5C(=O)c5nc6ccccc6o5)c4c3)cc2)CCN(CC(=O)O)CC1 [drawing 317]	–	–	>500 min	pKD (Biacore) [4]: >11; pIC50 (mouseFAP) [5]: 8.6

From patent EP4122499A1, “FIBROBLAST ACTIVATION PROTEIN INHIBITORS AND USE THEREOF” (3B Pharmaceuticals GmbH, priority 2021, dated 2023)
